{
  "source": "patent US8846746B2",
  "about": "“Pyrazole compound and pharmaceutical use thereof” (Japan Tobacco Inc., priority 2011, dated 2014)",
  "data": [
    {"target": "human SGLT1 (Homo sapiens (Human), UniProt P13866)", "sequence (P13866 whole entry)": "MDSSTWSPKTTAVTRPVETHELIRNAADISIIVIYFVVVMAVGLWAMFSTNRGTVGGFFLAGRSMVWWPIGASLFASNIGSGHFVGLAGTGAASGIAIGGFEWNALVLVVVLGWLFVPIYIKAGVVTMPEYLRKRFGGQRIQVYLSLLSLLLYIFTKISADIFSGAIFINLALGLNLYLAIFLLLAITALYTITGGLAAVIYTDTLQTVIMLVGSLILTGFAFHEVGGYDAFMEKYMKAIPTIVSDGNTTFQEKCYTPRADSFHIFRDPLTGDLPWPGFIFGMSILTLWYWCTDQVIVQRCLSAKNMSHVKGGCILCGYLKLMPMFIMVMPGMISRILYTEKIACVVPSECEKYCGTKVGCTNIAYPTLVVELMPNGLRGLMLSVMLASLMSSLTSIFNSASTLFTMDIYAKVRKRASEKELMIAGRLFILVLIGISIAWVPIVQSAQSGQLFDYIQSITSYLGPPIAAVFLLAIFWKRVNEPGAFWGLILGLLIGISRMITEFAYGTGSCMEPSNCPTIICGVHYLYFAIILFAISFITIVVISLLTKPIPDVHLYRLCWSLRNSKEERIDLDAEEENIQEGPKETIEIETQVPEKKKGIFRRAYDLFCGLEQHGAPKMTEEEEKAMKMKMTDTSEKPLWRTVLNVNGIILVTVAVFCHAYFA", "test": "SGLT1 inhibitory activity: 14C-AMG uptake into CHO-K1 cell line stably expressing human SGLT1", "format": "cell-based", "conditions": "14C-AMG uptake, CHO-K1 cells expressing human SGLT1", "procedure": "(§1) SGLT1 inhibitory activity of a test compound (IC50 value) was calculated based on an amount of intake into a cell of labeled α-methyl-D-glucopyranoside (^14C-AMG) which is transported by SGLT1.\n(§2) 1) Construction of Human SGLT1 Expression Plasmid\n(§3) A DNA fragment containing human SGLT1, wherein NheI recognition and cleavage sequence was added upstream of a Kozac consensus sequence of the vector; and a stop codon (TAG) and a SalI recognition and cleavage sequence was added just downstream of a coding region of the human SGLT1, was amplified by PCR using pCMV6-hSGLT1 (OriGene) as a template. The purified DNA fragment was cleaved by restriction enzymes NheI and SalI, and the obtained fragment was ligated into pcDNA3.1 (+) which was cleaved by NheI and XhoI to construct human SGLT1 expression plasmid.\n(§4) 2) Establishment of Stable Cell Lines Expressing Human SGLT1\n(§5) A human SGLT1 expression plasmid pcDNA-hSGLT1 was transfected into CHO-K1 cells by Lipofectamine-2000 (Invitrogen). The cells were cultured in the presence of G418 (Nakalai tesque) and drug-resistant cells were selected. A cell line having the highest S/B ratio of an amount of ^14C-AMG uptake per cell treated by solvent to an amount of ^14C-AMG uptake per cell treated by phlorizin (SGLT inhibitor) was selected from the drug-resistant cells as a stable cell lines expressing human SGLT1.\n(§6) 3) Evaluation of SGLT1 Inhibitory Activity\n(§7) The stable cell line expressing human SGLT1 was seeded at 5×10^4 cells/well on BioCoat™ Poly-D-Lysine 96 well plate with Lid (Becton Dickinson and Company) and cultured at 37° C. under 5% CO2 overnight. The medium was replaced with 100 μL/well of a Na (−) buffer (140 mM choline chloride, 2 mM KCl, 1 mM MgCl2, 1 mM CaCl2, 10 mM HEPES, 5 mM Tris, pH7.4) followed by incubation for 20 minutes at 37° C. under 5% CO2. After removing the Na (−) buffer, a test compound solution which was prepared from Na (+) buffer (140 mM NaCl, 2 mM KCl, 1 mM MgCl2, 1 mM CaCl2, 10 mM HEPES, 5 mM Tris, pH7.4) containing BSA was added thereto at 40 μL/well. In addition, Na (+) buffer containing 8 kBq of ^14C-AMG and 2 mM AMG was added thereto at 40 μL/well, and was mixed well. Na (−) buffer containing BSA was added to a blank well at 40 μL/well and additionally adding a Na (+) buffer containing 8 kBq of ^14C-AMG and 2 mM AMG, and was mixed well. Cells were incubated for 1 hour at 37° C. under 5% CO2. After the reaction, the cells were washed twice with 100 μL/well of iced wash buffer (100 mM AMG, 140 mM choline chloride, 2 mM KCl, 1 mM MgCl2, 1 mM CaCl2, 10 mM HEPES, 5 mM Tris, pH7.4), then lysed in 50 μL/well of a 0.2N aqueous solution of NaOH. The cell lysate was transferred to OptiPlate96 (Perkin-Elmer) and 100 μL/well of MicroScint-40 (Perkin-Elmer) was dispensed. The radioactivity was counted by TOPCOUNT NXT (Perkin-Elmer).\n(§8) A data was obtained by deducting the average value (CPM) of blank wells from the average value (CPM) of each treated well. The inhibition ratio (%) was calculated by the following formula: inhibition rate (%)=[(A−B)/A]×100, where A is a data of the solvent control, and B is a data of a test compound.", "units": {"IC50": "nM"}, "values": [
      {"smiles": "O=C1C[C@@H](C(=O)Nc2cc(-c3cccc(OC(F)(F)F)c3)n(-c3ccccc3)n2)CN1", "note": "[Example 4, (R)-5-oxopyrrolidine-3-carboxylic acid[1-phenyl-5-(3-trifluoromethoxyphenyl)-1H-pyrazol-3-yl]amide]", "IC50": 8.6},
      {"smiles": "CCCc1cccc(-c2cc(NC(=O)[C@H]3CNC(=O)N3C)nn2-c2ccccc2)c1", "note": "[Example 6, (R)-3-methyl-2-oxoimidazolidine-4-carboxylic acid [1-phenyl-5-(3-propylphenyl)-1H-pyrazol-3-yl]amide]", "IC50": 7.2},
      {"smiles": "CCCc1cccc(-c2cc(NC(=O)[C@H]3CNC(=O)N3)nn2-c2ccccc2)c1", "note": "[Example 8, (R)-2-oxoimidazolidine-4-carboxylic acid[1-phenyl-5-(3-propylphenyl)-1H-pyrazol-3-yl]amide]", "IC50": 20},
      {"smiles": "CCCc1cccc(-c2cc(NC(=O)[C@H]3CNC(=O)C3)nn2-c2ccccc2)c1", "note": "[Example 22]", "IC50": 4.7},
      {"smiles": "CCCc1cccc(-c2cc(NC(=O)[C@@H]3CNC(=O)C3)nn2-c2ccccc2)c1", "note": "[Example 23]", "IC50": 7.4},
      {"smiles": "CC(C)(C)c1cccc(-c2cc(NC(=O)[C@H]3CNC(=O)C3)nn2-c2ccccc2)c1", "note": "[Example 25]", "IC50": 1.8},
      {"smiles": "CC(C)(C)c1cccc(-c2cc(NC(=O)[C@@H]3CNC(=O)C3)nn2-c2ccccc2)c1", "note": "[Example 26]", "IC50": 3.5},
      {"smiles": "O=C1C[C@@H](C(=O)Nc2cc(-c3cccc(C(F)(F)F)c3)n(-c3ccccc3)n2)CN1", "note": "[Example 27]", "IC50": 23},
      {"smiles": "O=C1C[C@H](C(=O)Nc2cc(-c3cccc(C(F)(F)F)c3)n(-c3ccccc3)n2)CN1", "note": "[Example 28]", "IC50": 52},
      {"smiles": "O=C1C[C@H](C(=O)Nc2cc(-c3cccc(OC(F)(F)F)c3)n(-c3ccccc3)n2)CN1", "note": "[Example 29]", "IC50": 24},
      {"smiles": "CCOc1cccc(-c2cc(NC(=O)[C@H]3CNC(=O)C3)nn2-c2ccccc2)c1", "note": "[Example 30]", "IC50": 95},
      {"smiles": "CCOc1cccc(-c2cc(NC(=O)[C@@H]3CNC(=O)C3)nn2-c2ccccc2)c1", "note": "[Example 31]", "IC50": 270},
      {"smiles": "CCCc1cccc(-c2cc(NC(=O)[C@H]3CNC(=O)C3)nn2-c2ccc(F)cc2)c1", "note": "[Example 34]", "IC50": 6.8},
      {"smiles": "CCCc1cccc(-c2cc(NC(=O)[C@@H]3CNC(=O)C3)nn2-c2ccc(F)cc2)c1", "note": "[Example 35]", "IC50": 15},
      {"smiles": "CCCc1cccc(-c2cc(NC(=O)[C@H]3CNC(=O)C3)nn2-c2ccc(Cl)cc2)c1", "note": "[Example 36]", "IC50": 9.4},
      {"smiles": "CCCc1cccc(-c2cc(NC(=O)[C@@H]3CNC(=O)C3)nn2-c2ccc(Cl)cc2)c1", "note": "[Example 37]", "IC50": 16},
      {"smiles": "O=C1C[C@@H](C(=O)Nc2cc(-c3cccc(Cl)c3)n(-c3ccccc3)n2)CN1", "note": "[Example 38]", "IC50": 130},
      {"smiles": "O=C1C[C@H](C(=O)Nc2cc(-c3cccc(Cl)c3)n(-c3ccccc3)n2)CN1", "note": "[Example 39]", "IC50": 350},
      {"smiles": "O=C1C[C@@H](C(=O)Nc2cc(C3CCCCC3)n(-c3ccccc3)n2)CN1", "note": "[Example 40]", "IC50": 650},
      {"smiles": "O=C1C[C@H](C(=O)Nc2cc(C3CCCCC3)n(-c3ccccc3)n2)CN1", "note": "[Example 41]", "IC50": 1900},
      {"smiles": "CCc1cccc(-c2cc(NC(=O)[C@H]3CNC(=O)C3)nn2-c2ccccc2)c1", "note": "[Example 43]", "IC50": 11},
      {"smiles": "CCc1cccc(-c2cc(NC(=O)[C@@H]3CNC(=O)C3)nn2-c2ccccc2)c1", "note": "[Example 44]", "IC50": 34},
      {"smiles": "CCCCc1cccc(-c2cc(NC(=O)[C@H]3CNC(=O)C3)nn2-c2ccccc2)c1", "note": "[Example 45]", "IC50": 4.3},
      {"smiles": "CCCCc1cccc(-c2cc(NC(=O)[C@@H]3CNC(=O)C3)nn2-c2ccccc2)c1", "note": "[Example 46]", "IC50": 3.7},
      {"smiles": "O=C1C[C@@H](C(=O)Nc2cc(C3=CCCCC3)n(-c3ccccc3)n2)CN1", "note": "[Example 47]", "IC50": 420},
      {"smiles": "CCCc1cccc(-c2cc(NC(=O)[C@H]3CNC(=O)C3)nn2-c2ccc(C)cc2)c1", "note": "[Example 48]", "IC50": 3.5},
      {"smiles": "CCCc1cccc(-c2cc(NC(=O)[C@@H]3CNC(=O)C3)nn2-c2ccc(C)cc2)c1", "note": "[Example 49]", "IC50": 12},
      {"smiles": "CCCc1cc(-c2cc(NC(=O)[C@H]3CNC(=O)C3)nn2-c2ccccc2)ccc1F", "note": "[Example 50]", "IC50": 22},
      {"smiles": "CCCc1cc(-c2cc(NC(=O)[C@@H]3CNC(=O)C3)nn2-c2ccccc2)ccc1F", "note": "[Example 51]", "IC50": 80},
      {"smiles": "CCC(C)(C)c1cccc(-c2cc(NC(=O)[C@H]3CNC(=O)C3)nn2-c2ccccc2)c1", "note": "[Example 52]", "IC50": 3.7},
      {"smiles": "CCC(C)(C)c1cccc(-c2cc(NC(=O)[C@@H]3CNC(=O)C3)nn2-c2ccccc2)c1", "note": "[Example 53]", "IC50": 3.8},
      {"smiles": "CC(C)c1cccc(-c2cc(NC(=O)[C@H]3CNC(=O)C3)nn2-c2ccccc2)c1", "note": "[Example 54]", "IC50": 10},
      {"smiles": "CC(C)c1cccc(-c2cc(NC(=O)[C@@H]3CNC(=O)C3)nn2-c2ccccc2)c1", "note": "[Example 55]", "IC50": 18},
      {"smiles": "Cc1ccccc1-c1cc(NC(=O)[C@H]2CNC(=O)C2)nn1-c1ccccc1", "note": "[Example 56]", "IC50": 14300},
      {"smiles": "Cc1cccc(-c2cc(NC(=O)[C@H]3CNC(=O)C3)nn2-c2ccccc2)c1", "note": "[Example 57]", "IC50": 230},
      {"smiles": "Cc1ccc(-c2cc(NC(=O)[C@H]3CNC(=O)C3)nn2-c2ccccc2)cc1", "note": "[Example 58]", "IC50": 3500},
      {"smiles": "O=C1C[C@@H](C(=O)Nc2cc(C3CCCCCC3)n(-c3ccccc3)n2)CN1", "note": "[Example 62]", "IC50": 470},
      {"smiles": "O=C1C[C@@H](C(=O)Nc2cc(C3CCCC3)n(-c3ccccc3)n2)CN1", "note": "[Example 63]", "IC50": 2400},
      {"smiles": "CCCc1cccc(-c2cc(NC(=O)[C@H]3CNC(=O)C3)nn2C2CCCC2)c1", "note": "[Example 64]", "IC50": 12},
      {"smiles": "CCCc1cccc(-c2cc(NC(=O)[C@@H]3CNC(=O)C3)nn2C2CCCC2)c1", "note": "[Example 65]", "IC50": 40},
      {"smiles": "CCCc1cccc(-c2cc(NC(=O)[C@H]3CNC(=O)C3)nn2CC(F)(F)F)c1", "note": "[Example 66]", "IC50": 210},
      {"smiles": "CCCc1cccc(-c2cc(NC(=O)[C@H]3CNC(=O)C3)nn2C2CCCCCC2)c1", "note": "[Example 68]", "IC50": 6.7},
      {"smiles": "CCCc1cccc(-c2cc(NC(=O)[C@@H]3CNC(=O)C3)nn2C2CCCCCC2)c1", "note": "[Example 69]", "IC50": 18},
      {"smiles": "CC(C)Cc1cccc(-c2cc(NC(=O)[C@H]3CNC(=O)C3)nn2-c2ccccc2)c1", "note": "[Example 70]", "IC50": 1.6},
      {"smiles": "CC(C)Cc1cccc(-c2cc(NC(=O)[C@@H]3CNC(=O)C3)nn2-c2ccccc2)c1", "note": "[Example 71]", "IC50": 3.5},
      {"smiles": "CCC(F)(F)c1cccc(-c2cc(NC(=O)[C@H]3CNC(=O)C3)nn2-c2ccccc2)c1", "note": "[Example 72]", "IC50": 4.7},
      {"smiles": "CCC(F)(F)c1cccc(-c2cc(NC(=O)[C@@H]3CNC(=O)C3)nn2-c2ccccc2)c1", "note": "[Example 73]", "IC50": 13},
      {"smiles": "CCCc1cc(F)cc(-c2cc(NC(=O)[C@H]3CNC(=O)C3)nn2-c2ccccc2)c1", "note": "[Example 74]", "IC50": 3.1},
      {"smiles": "CCCc1cc(F)cc(-c2cc(NC(=O)[C@@H]3CNC(=O)C3)nn2-c2ccccc2)c1", "note": "[Example 75]", "IC50": 3.9},
      {"smiles": "CCCc1cccc(-c2cc(NC(=O)[C@H]3CNC(=O)C3)nn2-c2cccc(C)c2)c1", "note": "[Example 76]", "IC50": 1.7},
      {"smiles": "CCCc1cccc(-c2cc(NC(=O)[C@@H]3CNC(=O)C3)nn2-c2cccc(C)c2)c1", "note": "[Example 77]", "IC50": 2},
      {"smiles": "CC1(C)CCC=C(c2cc(NC(=O)[C@H]3CNC(=O)C3)nn2-c2ccccc2)C1", "note": "[Example 78]", "IC50": 7.7},
      {"smiles": "CC1(C)C=C(c2cc(NC(=O)[C@H]3CNC(=O)C3)nn2-c2ccccc2)CCC1", "note": "[Example 79]", "IC50": 22},
      {"smiles": "CC(C)(O)c1cccc(-c2cc(NC(=O)[C@H]3CNC(=O)C3)nn2-c2ccccc2)c1", "note": "[Example 80]", "IC50": 220}
    ]},
    {"target": "human SGLT1 (Homo sapiens (Human), UniProt P13866)", "test": "SGLT1 inhibitory activity: 14C-AMG uptake into CHO-K1 cell line stably expressing human SGLT1", "format": "cell-based", "conditions": "CHO-K1, at 0.1 uM", "procedure": "as §1, §2, §3, §4, §5, §6, §7, §8", "units": {"inhibition at 0.1 µM": "%"}, "values": [
      {"smiles": "CCCc1cccc(-c2cc(NC(=O)[C@@H]3CNC(=O)C3)nn2CC(F)(F)F)c1", "note": "[Example 67]", "inhibition at 0.1 µM": 29}
    ]}
  ]
}
